Test [1] concerns the target T1, 5-hydroxytryptamine receptor 1A (Rattus norvegicus, UniProt P19327).
T1 sequence (P19327 whole entry): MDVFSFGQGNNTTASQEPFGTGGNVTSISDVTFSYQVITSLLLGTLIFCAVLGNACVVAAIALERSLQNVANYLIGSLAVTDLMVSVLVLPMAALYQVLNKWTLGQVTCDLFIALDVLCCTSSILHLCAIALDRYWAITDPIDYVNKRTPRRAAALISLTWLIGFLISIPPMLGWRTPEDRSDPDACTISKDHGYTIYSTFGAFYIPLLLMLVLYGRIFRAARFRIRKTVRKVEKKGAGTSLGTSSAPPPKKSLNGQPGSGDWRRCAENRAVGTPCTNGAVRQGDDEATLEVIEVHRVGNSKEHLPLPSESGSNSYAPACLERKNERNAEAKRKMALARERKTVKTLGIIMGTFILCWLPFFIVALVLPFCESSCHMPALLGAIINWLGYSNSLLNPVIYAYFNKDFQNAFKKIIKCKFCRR
Put plainly: In vitro inhibitory activity against [3H]8-OH-DPAT binding to 5-hydroxytryptamine 1A receptor.

The target in test [2] is Serotonin 2 (5-HT2) receptor (Rattus norvegicus, UniProt P30994+P08909+P14842). Put plainly: In vitro inhibitory activity against [3H]ketanserin binding to 5-hydroxytryptamine 2 receptor. It is filed as protein assay.
In test [3] the test system is Mus musculus. The experiment in a line: In vivo effective dose to antagonize the apomorphine induced climbing response in mice administered intraperitoneally. (value in bracket denotes 95% confidence limit). The test is classed as functional. Particulars: ip.
Test [4] deals with Mus musculus. Put plainly: In vivo effective dose to antagonize the apomorphine induced climbing response in mice administered perorally. value in bracket denotes 95% confidence limit). The test is classed as functional. Particulars: po.
In test [5] the test system is Mus musculus. Put plainly: In vivo effective dose to antagonize the apomorphine induced climbing response in stereotypy mouse administered perorally Value in parentheses is 95% confidence limits. The note with it: po. The test is classed as functional.
Test [6] relates to Mus musculus. The experiment in a line: In vivo effective dose to antagonize the apomorphine induced climbing response in stereotype mouse administered intraperitoneally ( value in bracket indicates 95% confidence limit). Particulars: ip. It is filed as functional.
The subject of test [7] is Mus musculus. Put plainly: In vivo effective dose to induce catalepsy in mouse administered perorally. Value in parentheses is 95% confidence limits. Particulars: po. The test is classed as functional.
Test [8] concerns Mus musculus. Put plainly: In vivo effective dose required to antagonize the apomorphine induced climbing response in mice administered intraperitoneally. It is filed as functional. Particulars: ip.
In test [9] the test system is Mus musculus. The experiment in a line: In vivo effective dose to antagonize the apomorphine induced climbing response in mice administered perorally. It is filed as functional. The note with it: po.

As a reminder, the IC50 is the point on the concentration scale where inhibition reaches its midpoint. Low readings indicate inhibition by little substance, high ones a need for much substance. In general, ED50 refers to the dose at which the effect has come halfway, by size or by number of responders. For `Cl.Nc1ccccc1C(=O)NCCCCN1CCN(c2nsc3ccccc23)CC1`, the IC50 in test [1] amounted to 3.8 nM; in [2], 3.3 nM. Further, the ED50 was found to be 1.5 mg/kg in test [3]; 10.1 mg/kg in test [4]; 91.1 mg/kg in test [5]; 10.2 mg/kg in [6]; 192 mg/kg in test [7].
For `Cl.O=C(NCCCCN1CCN(c2nsc3ccccc23)CC1)c1ccccc1O`, the IC50 in [1] came out at 12 nM; in test [2], 3.9 nM. The figures for the ED50 in test [8] and in [9] were 1 mg/kg and 21.5 mg/kg, respectively.
